Test results taken from US20230416275A1, “MODULATORS OF CYSTIC FIBROSIS TRANSMEMBRANE CONDUCTANCE REGULATOR” (VERTEX PHARMACEUTICALS INCORPORATED, priority 2020, published 2023).

Legend:
[1] = target: CFTR-mediated chloride transport in human intestinal epithelial enteroid cells (Homo sapiens, UniProt P13569); assay: Membrane potential dye, Enteroid Assay A; format: cell-based; settings: for Ent. A Max Activity (%): % of chloride transport of triple combination control (3 μM N-[(6-amino-2-pyridyl)sulfonyl]-6-(3-fluoro-5-isobutoxy-phenyl)-2-[(4S)-2,2,4-trimethylpyrrolidin-1-yl]pyridine-3-carboxamide, 3 μM tezacaftor, 300 nM acute ivacaftor); for EC50: enteroid cells, 18-24 hours incubation, acute 10 μM forskolin and 300 nM ivacaftor, read-out: Ent. A EC50
Method: Base medium (ADF+++) consisted of Advanced DMEM/Ham's F12, 2 mM Glutamax, 10 mM HEPES, […] penicillin/streptomycin.
Intestinal enteroid maintenance medium (IEMM) consisted of ADF+++, 1×B27 supplement, 1×N2 supplement, 1.25 mM N-acetyl cysteine, 10 mM Nicotinamide, 50 ng/mL hEGF, 10 nM Gastrin, 1 μg/mL hR-spondin-1, 100 ng/mL hNoggin, TGF-b type 1 inhibitor A-83-01, 100 μg/mL Primocin, 10 μM P38 MAPK inhibitor SB202190.
Bath 1 Buffer consisted of 1 mM MgCl2, 160 mM NaCl, 4.5 mM KCl, 10 mM HEPES, 10 mM Glucose, 2 mM CaCl2.
Chloride Free Buffer consisted of 1 mM Magnesium Gluconate, 2 mM Calcium Gluconate, 4.5 mM Potassium Gluconate, 160 mM Sodium Gluconate, 10 mM HEPES, 10 mM Glucose.
Bath1 Dye Solution consisted of Bath 1 Buffer, 0.04% Pluronic F127, 20 μM Methyl Oxonol, 30 μM CaCCinh-A01, 30 μM Chicago Sky Blue.
Chloride Free Dye Solution consisted of Chloride Free Buffer, 0.04% Pluronic F127, 20 μM Methyl Oxonol, 30 μM CaCCinh-A01, 30 μM Chicago Sky Blue.
Chloride Free Dye Stimulation Solution consisted of Chloride Free Dye Solution, 10 μM forskolin, 100 μM IBMX, and 300 nM Compound III.
Human intestinal epithelial enteroid cells were obtained from the Hubrecht Institute for Developmental Biology and Stem Cell Research, Utrecht, The Netherlands and expanded in T-Flasks as previously described (Dekkers J F, Wiegerinck C L, de Jonge H R, Bronsveld I, Janssens H M, de Winter-de Groot K M, Brandsma A M, de Jong N W M, Bijvelds M J C, Scholte B J, Nieuwenhuis E E S, van den Brink S, Clevers H, van der Ent C K, Middendorp S and M Beekman J M. A functional CFTR assay using primary cystic fibrosis intestinal organoids. Nat Med. 2013 July; 19(7):939-45).
c. Enteroid Cell Harvesting and Seeding
Cells were recovered in cell recovery solution, collected by centrifugation at 650 rpm for 5 minutes at 4° C., resuspended in TrypLE and incubated for 5 minutes at 37° C. Cells were then collected by centrifugation at 650 rpm for 5 minutes at 4° C. and resuspended in IEMM containing 10 μM ROCK inhibitor (RI). The cell suspension was passed through a 40 μm cell strainer and resuspended at 1×10^6 cells/mL in IEMM containing 10 μM RI. Cells were seeded at 5000 cells/well into multi-well plates and incubated for overnight at 37° C., 95% humidity and 5% CO2 prior to assay.
d. Membrane Potential Dye, Enteroid Assay A
Enteroid cells were incubated with test compound in IEMM for 18-24 hours at 37° C., 95% humidity and 5% CO2. […] Briefly, cells were washed 5 times in Bath 1 Buffer. Bath 1 Dye Solution was added, and the cells were incubated for 25 minutes at room temperature. Following dye incubation, cells were washed 3 times in Chloride Free Dye Solution. Chloride transport was initiated by addition of Chloride Free Dye Stimulation Solution and the fluorescence signal was read for 15 minutes. […] Chloride transport was then expressed as a percentage of the chloride transport following treatment with 3 μM N-[(6-amino-2-pyridyl)sulfonyl]-6-(3-fluoro-5-isobutoxy-phenyl)-2-[(4S)-2,2,4-trimethylpyrrolidin-1-yl]pyridine-3-carboxamide, 3 μM (R)-1-(2,2-difluorobenzo[d][1,3]dioxol-5-yl)-N-(1-(2,3-dihydroxypropyl)-6-fluoro-2-(1-hydroxy-2-methylpropan-2-yl)-1H-indol-5-yl)cyclopropanecarboxamide and 300 nM acute N-[2,4-bis(1,1-dimethylethyl)-5-hydroxyphenyl]-1,4-dihydro-4-oxoquinoline-3-carboxamide triple combination control (% Activity).

F508del in NIH 3T3 cells = target: T1, F508del in NIH 3T3 cells (Homo sapiens, UniProt P13569, DEL508-508); assay: 3T3 assay: membrane potential optical assay for F508del correction; format: cell-based, mouse; settings: for EC50: F508del NIH 3T3 cells, compound incubation 18-24 hours at 37° C., forskolin activation, read-out: 3T3 EC50; for Emax: NIH3T3, F508del NIH 3T3 cells, efficacy compared to lumacaftor in combination with acutely added 300 nM Ivacaftor, read-out: 3T3 Max Activity (%)
T1 construct: expressed in transfected cells
Text: a. Membrane Potential Optical Methods for Assaying F508del Modulation Properties of Compounds
The assay utilizes fluorescent voltage sensing dyes to measure changes in membrane potential using a fluorescent plate reader (e.g., FLIPR III, Molecular Devices, Inc.) as a readout for increase in functional F508del in NIH 3T3 cells. The driving force for the response is the creation of a chloride ion gradient in conjunction with channel activation by a single liquid addition step after the cells have previously been treated with compounds and subsequently loaded with a voltage sensing dye.
b. Identification of Corrector Compounds
To identify correctors of F508del, a single-addition HTS assay format was developed. This HTS assay utilizes fluorescent voltage sensing dyes to measure changes in membrane potential on the FLIPR III as a measurement for increase in gating (conductance) of F508del in F508del NIH 3T3 cells. The F508del NIH 3T3 cell cultures were incubated with the corrector compounds at a range of concentrations for 18-24 hours at 37° C., and subsequently loaded with a redistribution dye. The driving force for the response is a Cl^− ion gradient in conjunction with channel activation with forskolin in a single liquid addition step using a fluorescent plate reader such as FLIPR III.
Bath Solution #1: (in mM) NaCl 160, KCl 4.5, CaCl2 2, MgCl2 1, HEPES 10, pH 7.4 with NaOH.
Chloride-free bath solution: Chloride salts in Bath Solution #1 (above) are substituted with gluconate salts.
NIH3T3 mouse fibroblasts stably expressing F508del are used for optical measurements of membrane potential. The cells are maintained at 37° C. in 5% CO2 and 90% humidity in Dulbecco's modified Eagle's medium supplemented with 2 mM glutamine, 10% fetal bovine serum, 1×NEAA, b-ME, 1× pen/strep, and 25 mM HEPES in 175 cm^2 culture flasks. For all optical assays, the cells were seeded at ˜20,000/well in 384-well Matrigel-coated plates. For the correction assays, the cells are cultured at 37° C. with and without compounds for 16-24 hours.

Sequence of CFTR-mediated chloride transport in human intestinal epithelial enteroid cells (P13569 with tags, fused parts or gaps DEL508-508): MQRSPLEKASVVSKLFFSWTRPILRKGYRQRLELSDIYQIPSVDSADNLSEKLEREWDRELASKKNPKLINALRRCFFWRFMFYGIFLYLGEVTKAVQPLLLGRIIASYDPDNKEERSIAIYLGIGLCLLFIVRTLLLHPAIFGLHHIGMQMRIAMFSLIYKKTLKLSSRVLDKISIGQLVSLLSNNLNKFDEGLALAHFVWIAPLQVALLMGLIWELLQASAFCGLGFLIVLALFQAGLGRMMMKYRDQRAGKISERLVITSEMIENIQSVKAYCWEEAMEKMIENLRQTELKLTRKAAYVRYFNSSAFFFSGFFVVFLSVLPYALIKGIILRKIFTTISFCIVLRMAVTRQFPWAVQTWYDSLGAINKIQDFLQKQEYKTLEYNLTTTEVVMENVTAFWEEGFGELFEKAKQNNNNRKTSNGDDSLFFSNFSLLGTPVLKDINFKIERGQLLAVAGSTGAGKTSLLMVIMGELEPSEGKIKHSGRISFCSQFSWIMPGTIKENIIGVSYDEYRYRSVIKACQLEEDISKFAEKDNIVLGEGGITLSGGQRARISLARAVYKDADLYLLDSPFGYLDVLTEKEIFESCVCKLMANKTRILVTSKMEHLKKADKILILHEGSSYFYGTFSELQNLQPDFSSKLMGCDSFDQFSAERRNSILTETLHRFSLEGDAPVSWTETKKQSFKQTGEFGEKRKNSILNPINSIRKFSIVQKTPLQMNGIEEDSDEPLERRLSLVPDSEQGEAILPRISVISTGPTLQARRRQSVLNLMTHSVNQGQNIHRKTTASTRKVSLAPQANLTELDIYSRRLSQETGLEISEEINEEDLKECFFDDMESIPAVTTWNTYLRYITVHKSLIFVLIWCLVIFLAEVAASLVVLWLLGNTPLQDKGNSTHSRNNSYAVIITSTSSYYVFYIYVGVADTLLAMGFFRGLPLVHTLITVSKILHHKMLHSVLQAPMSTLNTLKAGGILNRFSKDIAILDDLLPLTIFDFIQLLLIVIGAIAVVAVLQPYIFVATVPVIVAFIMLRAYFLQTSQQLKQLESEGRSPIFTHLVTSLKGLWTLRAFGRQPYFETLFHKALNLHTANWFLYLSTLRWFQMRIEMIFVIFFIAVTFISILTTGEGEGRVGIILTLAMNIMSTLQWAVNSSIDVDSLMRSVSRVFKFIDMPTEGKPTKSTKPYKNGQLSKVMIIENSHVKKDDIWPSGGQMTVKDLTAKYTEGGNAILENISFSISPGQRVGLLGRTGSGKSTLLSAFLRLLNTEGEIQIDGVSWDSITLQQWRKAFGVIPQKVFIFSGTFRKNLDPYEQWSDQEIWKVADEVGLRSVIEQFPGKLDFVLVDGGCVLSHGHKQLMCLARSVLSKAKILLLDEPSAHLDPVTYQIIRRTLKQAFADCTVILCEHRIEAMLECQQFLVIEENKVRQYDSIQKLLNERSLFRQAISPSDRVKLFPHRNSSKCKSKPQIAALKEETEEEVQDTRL
T1 sequence (P13569 with tags, fused parts or gaps DEL508-508): as above

SMILES	Ent. A Max Activity (%) [1]	EC50 [1] [µM]	EC50 (F508del in NIH 3T3 cells) [µM]	Emax (F508del in NIH 3T3 cells) [%]
Cc1cccc(C)c1-c1cc2nc(n1)NS(=O)(=O)c1cccc(c1)NC(=O)[C@@H]1C[C@@H](CN(C(=O)OCCC(C)C)C1)O2 [Compound 8, 3-Methylbutyl (3S,7R)-19-(2,6-dimethylphenyl)-8,15,15-trioxo-2-oxa-15λ^6-thia-5,9,16,18,21-pentaazatetracyclo[15.3.1.13,7.110,14]tricosa-1(21),10(22),11,13,17,19-hexaene-5-carboxylate]	+++ (+++ is >60%)	< 1	< 1	–
Cc1cccc(C)c1-c1cc2nc(n1)NS(=O)(=O)c1cccc(c1)NC(=O)[C@@H]1C[C@@H](CN(C3CCCCC3)C1)O2 [Compound 10, (3S,7R)-5-cyclohexyl-19-(2,6-dimethylphenyl)-2-oxa-15λ^6-thia-5,9,16,18,21-pentaazatetracyclo[15.3.1.13,7.110,14]tricosa-1(21),10(22),11,13,17,19-hexaene-8,15,15-trione]	++ (++ is 30-60%)	1 to 3	< 1	–
Cc1cccc(C)c1-c1cc2nc(n1)NS(=O)(=O)c1cccc(c1)NC(=O)[C@H]1C[C@H](CN(CCC(C)(C)C)C1)O2 [Compound 11, (3R,7S)-5-(3,3-Dimethylbutyl)-19-(2,6-dimethylphenyl)-2-oxa-15λ^6-thia-5,9,16,18,21-pentaazatetracyclo[15.3.1.13,7.110,14]tricosa-1(21),10(22),11,13,17,19-hexaene-8,15,15-trione]	+ (+ is <30%)	–	< 1	> 60
Cc1cccc(C)c1-c1cc2nc(n1)NS(=O)(=O)c1cccc(c1)NC(=O)[C@H]1C[C@@H](CN(CCC(C)(C)C)C1)O2 [Compound 12, (3S,7S)-5-(3,3-Dimethylbutyl)-19-(2,6-dimethylphenyl)-2-oxa-15λ^6-thia-5,9,16,18,21-pentaazatetracyclo[15.3.1.13,7.110,14]tricosa-1(21),10(22),11,13,17,19-hexaene-8,15,15-trione]	++ (++ is 30-60%)	1 to 3	< 1	> 60
Cc1cccc(C)c1-c1cc2nc(n1)NS(=O)(=O)c1cccc(n1)NC(=O)C1CC(CN(CCC(C)(C)C3CC3)C1)O2 (centres unmarked) [Compound 15, 5-(3-Cyclopropyl-3-methylbutyl)-19-(2,6-dimethylphenyl)-2-oxa-15λ^6-thia-5,9,16,18,21,22-hexaazatetracyclo[15.3.1.13,7.110,14]tricosa-1(21),10,12,14(22),17,19-hexaene-8,15,15-trione]	++ (++ is 30-60%)	< 1	< 1	> 60
Cc1cccc(C)c1-c1cc2nc(n1)NS(=O)(=O)c1cccc(c1)NC(=O)[C@@H]1C[C@@H](CN(CCCCC(C)(C)C)C1)O2 [Compound 21]	++ (++ is 30-60%)	< 1	< 1	> 60
Cc1cccc(C)c1-c1cc2nc(n1)NS(=O)(=O)c1cccc(c1)NC(=O)[C@@H]1C[C@@H](CN(CC(C3CC3)C3CC3)C1)O2 [Compound 24]	++ (++ is 30-60%)	< 1	< 1	> 60
Cc1cccc(C)c1-c1cc2nc(n1)NS(=O)(=O)c1cccc(c1)NC(=O)[C@@H]1C[C@@H](CN(CC34CC(C3)C4)C1)O2 [Compound 25]	++ (++ is 30-60%)	< 1	< 1	> 60
Cc1cccc(C)c1-c1cc2nc(n1)NS(=O)(=O)c1cccc(c1)NC(=O)[C@@H]1C[C@@H](CN(CCC3(C(F)(F)F)CC3)C1)O2 [Compound 27]	+++ (+++ is >60%)	< 1	< 1	> 60
Cc1cccc(C)c1-c1cc2nc(n1)NS(=O)(=O)c1cccc(c1)NC(=O)[C@@H]1C[C@@H](CN(CCC3CC3)C1)O2 [Compound 28]	++ (++ is 30-60%)	< 1	< 1	> 60
Cc1cccc(C)c1-c1cc2nc(n1)NS(=O)(=O)c1cccc(c1)NC(=O)[C@@H]1C[C@@H](CN(CC3CC3)C1)O2 [Compound 30]	++ (++ is 30-60%)	1 to 3	< 1	> 60
Cc1cccc(C)c1-c1cc2nc(n1)NS(=O)(=O)c1cccc(c1)NC(=O)[C@@H]1C[C@@H](CN(C(=O)OCCF)C1)O2 [Compound 33]	++ (++ is 30-60%)	1 to 3	< 1	> 60
Cc1cccc(C)c1-c1cc2nc(n1)NS(=O)(=O)c1cccc(c1)NC(=O)[C@H]1C[C@@H](CN(C(=O)NC(C)(C)C)C1)O2 [Compound 42]	+ (+ is <30%)	–	3 to 30	> 60
Cc1cccc(C)c1-c1cc2nc(n1)NS(=O)(=O)c1cccc(c1)NC(=O)[C@H]1C[C@H](CN(C(=O)NC(C)(C)C)C1)O2 [Compound 43]	+ (+ is <30%)	–	3 to 30	> 60
Cc1cccc(C)c1-c1cc2nc(n1)NS(=O)(=O)c1cccc(c1)NC(=O)[C@@H]1C[C@@H](CN(C(=O)NC(C)(C)C)C1)O2 [Compound 44]	+++ (+++ is >60%)	3 to 30	< 1	> 60
Cc1cccc(C)c1-c1cc2nc(n1)NS(=O)(=O)c1cccc(c1)NC(=O)[C@@H]1C[C@@H](CN(C(=O)CC(C)(C)C)C1)O2 [Compound 45]	+++ (+++ is >60%)	1 to 3	< 1	> 60
